Measured values: patent US20160015669A1, “COMPOUND, 1, 3-DIOLEIN-2-LINOLEIN, AND PHARMACEUTICAL PREPARATION AND USE THEREOF” (ZHEJIANG KANGLAITE GROUP CO., LTD., priority 2014, published 2016)
Values after ≈ are worked out from the molar mass of the structure shown.

Tests used:
Type in all cases: cell-based
[1] = tested on: PANC-1 (human pancreatic cancer cells); assay: MTT method, inhibition of cell growth in vitro; settings: 48 h; for IC50: PANC-1, MTT
Description: (§1) A. Experimental Materials and the Preparation Thereof: • (1) Cell lines: PANC-1 (human pancreatic cancer cells), SKOV3 (human ovarian cancer cells), MCF-7 (human breast cancer cells), SMMC-7721 (human liver cancer cells), A549 (human lung cancer cells), BGC-823 (human gastric cancer cells), COLO205 (human colonic cancer cells), storaged and passaged maintainably in Research and Evaluation Center for Pharmacology, Shanghai Institute of Pharmaceutical Industry; • (2) DMEM complete medium supplied with 10% newborn calf serum (GIBCO BRL), 1% of penicillin (100 U/mL)+streptomycin (100 μg/mL); • (3) 0.25% trypsin solution, purchased from Invitrogen Corp. and storaged at −20; • (4) Phosphate buffer (PBS): NaCl 8 g, KCl 0.2 g, Na2HPO4 1.15 g and KH2PO4 0.2 g, dissolved in 1 L double-distilled water and autoclaved at 121 for 20 min, then storaged at 4; • (5) MTT (AMRESCO) solution: 5 mg/ml in PBS; • (6) Formazan crystal dissolving solution: SDS 10 g, isobutanol 5 ml and concentrated hydrochloric acid 0.1 ml, dissolved in 100 ml of deionized double distilled water.
(§2) The inhibition effects of the compound of formula (I) on the above-mentioned cell lines were detected by using MTT method. The specific procedures were as follows:
(§3) (1) Cell culture: (a) Storaged cells were taken out from the liquid nitrogen, thawed quickly in a 37 water bath, then aseptically transferred into 6 ml of cellular medium in a 10 ml centrifugal tube, centrifuged at 1000 rpm for 5 min. The supernatant was discarded, then the precipitated cells were re-suspended in 5-6 ml cellular media by pipetting and transferred into a flask in a 37 incubator for cell culture; (b) Next day, the flask was taken out from the incubator and the used medium was discarded, then the cells were incubated in 5-6 ml fresh medium in the 37 incubator; (c) On the third day, the flask was taken out from the incubator and the used medium was discarded, then 2-3 ml of PBS (pH7.4) was added into the flask with rocking for cleaning it and the used PBS was discarded. Such a cellular cleaning step was repeated once again. 3-5 drops of 0.25% trypsin solution were added into the flask with sloshing, thus well-distributed in it. The flask was capped and placed in a 37 incubator for about 3 min, and the separation of cells from the flask wall was observed under the microscope. 2 ml of cellular medium was added and cells were separated completely from the flask wall by pipetting, then the cell suspension was transferred into 2 separate clean flasks, each containing 5-6 ml medium. The cell suspension was well-distributed by pipetting, then the flask was placed in a 37 incubator. (d) Step(c) was repeated every other day. In the whole cultivation process, adherent cells were not allowed to grow too dense and suspension cells were always maintained at a logarithmic growth stage.
(§4) (2) Preparation of the sample and the control: A proper amount of sample of the compound of formula (I) was dissolved in DMSO to obtain a solution in a concentration of 10 mg/ml. This solution was diluted in a gradient dilution with PBS to obtain a set of sample solutions in the concentration of 10 mg/ml, 5000 μg/ml, 2500 μg/ml, 1250 μg/ml, 625 μg/ml and 312.5 μg/ml, respectively.
(§5) (3) Each diluted sample solution was added into duplicated wells of a 96 well flat-bottom microplate (10 μl/well). The correspondingly diluted DMSO solutions, as controls, were added into the wells of the microplate.
(§6) (4) Cells in a logarithmic growth stage were trypsinized and washed, then re-suspended in the medium containing 10% calf serum. The number of living cells was counted in Trypan blue dye exclusion method and cell suspensions were adjusted into a density of 2×10^5 cell/ml.
(§7) (5) The cell-contained 96 well flat-bottom microplate was placed in a 37 incubator and cells were incubated under 5% CO2 for 48 h.
(§8) (6) 20 it of 5 mg/ml MTT solution was added into each well and cells were incubated continuously in the incubator for 3-4 h. […]

[2] = tested on: COLO205 (human colonic cancer cells); assay: MTT method, inhibition of cell growth in vitro; settings: 48 h; for IC50: COLO 205, COLO205, MTT
Description: as §1, §2, §3, §4, §5, §6, §7, §8

[3] = tested on: BGC-823 (human gastric cancer cells); assay: MTT method, inhibition of cell growth in vitro; settings: 48 h; for IC50: BGC-823, MTT
Description: as §1, §2, §3, §4, §5, §6, §7, §8

[4] = tested on: SMMC-7721 (human liver cancer cells); assay: MTT method, inhibition of cell growth in vitro; settings: 48 h; for IC50: SMMC-7721, MTT
Description: as §1, §2, §3, §4, §5, §6, §7, §8

7 human tumor cell lines = assay: MTT method, overall conclusion on 7 human tumor cell lines; settings: various concentrations
Description: as §1
The inhibition effects of the compound of formula (I) on the above-mentioned cell lines were detected by using MTT method. The specific procedures were as follows: […]

[5] = tested on: A549 (human lung cancer cells); assay: MTT method, inhibition of cell growth in vitro; settings: 48 h
Description: as §1, §2, §3, §4, §5, §6, §7, §8

[6] = tested on: MCF-7 (human breast cancer cells); assay: MTT method, inhibition of cell growth in vitro; settings: 48 h
Description: as §1, §2, §3, §4, §5, §6, §7, §8

[7] = tested on: SKOV3 (human ovarian cancer cells); assay: MTT method, inhibition of cell growth in vitro; settings: 48 h
Description: as §1, §2, §3, §4, §5, §6, §7, §8

CC(=O)O[C@H]1C(=O)[C@@]2(C)[C@H]([C@H](OC(=O)c3ccccc3)[C@]3(O)C[C@H](OC(=O)[C@H](O)[C@@H](NC(=O)c4ccccc4)c4ccccc4)C(C)=C1C3(C)C)[C@]1(OC(C)=O)CO[C@@H]1C[C@@H]2O [Taxol, reference compound]
IC50 [1]: 0.44 µg/mL (≈ 0.515 µM) | IC50 [2]: 0.75 µg/mL (≈ 0.878 µM) | IC50 [3]: 0.24 µg/mL (≈ 0.281 µM) | IC50 [4]: 0.12 µg/mL (≈ 0.141 µM)

CCCCCC=CCC=CCCCCCCCC(=O)OC(COC(=O)CCCCCCCC=CCCCCCCCC)COC(=O)CCCCCCCC=CCCCCCCCC (centres unmarked) [compound of formula (I), 1,3-diolein-2-linolein]
Inhibition on 7 human tumor cell lines (in words) (7 human tumor cell lines): obvious inhibition on 7 human tumor cell lines | inhibition at 31.25 µg/mL ([5]; A549, 31.25 μg/ml, read-out: Inhibition rate on the cell growth): 5.16% | inhibition at 62.5 µg/mL ([5]; A549, 62.5 μg/ml, read-out: Inhibition rate on the cell growth): 25.6% | inhibition at 125 µg/mL ([5]; A549, 125 μg/ml, read-out: Inhibition rate on the cell growth): 46.4% | inhibition at 250 µg/mL ([5]; A549, 250 μg/ml, read-out: Inhibition rate on the cell growth): 50.5% | inhibition at 500 µg/mL ([5]; A549, 500 μg/ml, read-out: Inhibition rate on the cell growth): 67% | inhibition at 1000 µg/mL ([5]; A549, 1000 μg/ml, read-out: Inhibition rate on the cell growth): 98.2% | IC50 ([5]; A549, MTT): 156 µg/mL | inhibition at 31.25 µg/mL ([6]; MCF7, MCF-7, 31.25 μg/ml, read-out: Inhibition rate on the cell growth): 13.3% | inhibition at 62.5 µg/mL ([6]; MCF7, MCF-7, 62.5 μg/ml, read-out: Inhibition rate on the cell growth): 31.5% | inhibition at 125 µg/mL ([6]; MCF7, MCF-7, 125 μg/ml, read-out: Inhibition rate on the cell growth): 62.3% | inhibition at 250 µg/mL ([6]; MCF7, MCF-7, 250 μg/ml, read-out: Inhibition rate on the cell growth): 67.1% | inhibition at 500 µg/mL ([6]; MCF7, MCF-7, 500 μg/ml, read-out: Inhibition rate on the cell growth): 68.8% | inhibition at 1000 µg/mL ([6]; MCF7, MCF-7, 1000 μg/ml, read-out: Inhibition rate on the cell growth): 99.7% | IC50 ([6]; MCF7, MCF-7, MTT): 106 µg/mL | inhibition at 62.5 µg/mL ([1]; PANC-1, 62.5 μg/ml, read-out: Inhibition rate on the cell growth): 0.8% | inhibition at 125 µg/mL ([1]; PANC-1, 125 μg/ml, read-out: Inhibition rate on the cell growth): 2.01% | inhibition at 250 µg/mL ([1]; PANC-1, 250 μg/ml, read-out: Inhibition rate on the cell growth): 25.9% | inhibition at 500 µg/mL ([1]; PANC-1, 500 μg/ml, read-out: Inhibition rate on the cell growth): 48.1% | inhibition at 1000 µg/mL ([1]; PANC-1, 1000 μg/ml, read-out: Inhibition rate on the cell growth): 75% | IC50 [1]: 509 µg/mL | inhibition at 31.25 µg/mL ([2]; COLO 205, COLO205, 31.25 μg/ml, read-out: Inhibition rate on the cell growth): 8.95% | inhibition at 62.5 µg/mL ([2]; COLO 205, COLO205, 62.5 μg/ml, read-out: Inhibition rate on the cell growth): 10.7% | inhibition at 125 µg/mL ([2]; COLO 205, COLO205, 125 μg/ml, read-out: Inhibition rate on the cell growth): 12.6% | inhibition at 250 µg/mL ([2]; COLO 205, COLO205, 250 μg/ml, read-out: Inhibition rate on the cell growth): 43.9% | inhibition at 500 µg/mL ([2]; COLO 205, COLO205, 500 μg/ml, read-out: Inhibition rate on the cell growth): 82.3% | inhibition at 1000 µg/mL ([2]; COLO 205, COLO205, 1000 μg/ml, read-out: Inhibition rate on the cell growth): 93.8% | IC50 [2]: 209 µg/mL | inhibition at 31.25 µg/mL ([3]; BGC-823, 31.25 μg/ml, read-out: Inhibition rate on the cell growth): 8.31% | inhibition at 62.5 µg/mL ([3]; BGC-823, 62.5 μg/ml, read-out: Inhibition rate on the cell growth): 63.8% | inhibition at 125 µg/mL ([3]; BGC-823, 125 μg/ml, read-out: Inhibition rate on the cell growth): 79% | inhibition at 250 µg/mL ([3]; BGC-823, 250 μg/ml, read-out: Inhibition rate on the cell growth): 76.2% | inhibition at 500 µg/mL ([3]; BGC-823, 500 μg/ml, read-out: Inhibition rate on the cell growth): 85% | inhibition at 1000 µg/mL ([3]; BGC-823, 1000 μg/ml, read-out: Inhibition rate on the cell growth): 98.5% | IC50 [3]: 85 µg/mL | inhibition at 31.25 µg/mL ([7]; SK-OV-3, SKOV3, 31.25 μg/ml, read-out: Inhibition rate on the cell growth): 9.97% | inhibition at 62.5 µg/mL ([7]; SK-OV-3, SKOV3, 62.5 μg/ml, read-out: Inhibition rate on the cell growth): 34% | inhibition at 125 µg/mL ([7]; SK-OV-3, SKOV3, 125 μg/ml, read-out: Inhibition rate on the cell growth): 76.8% | inhibition at 250 µg/mL ([7]; SK-OV-3, SKOV3, 250 μg/ml, read-out: Inhibition rate on the cell growth): 79.4% | inhibition at 500 µg/mL ([7]; SK-OV-3, SKOV3, 500 μg/ml, read-out: Inhibition rate on the cell growth): 93.8% | inhibition at 1000 µg/mL ([7]; SK-OV-3, SKOV3, 1000 μg/ml, read-out: Inhibition rate on the cell growth): 99.3% | IC50 ([7]; SK-OV-3, SKOV3, MTT): 92.6 µg/mL | inhibition at 31.25 µg/mL ([4]; SMMC-7721, 31.25 μg/ml, read-out: Inhibition rate on the cell growth): 8.81% | inhibition at 62.5 µg/mL ([4]; SMMC-7721, 62.5 μg/ml, read-out: Inhibition rate on the cell growth): 13.4% | inhibition at 125 µg/mL ([4]; SMMC-7721, 125 μg/ml, read-out: Inhibition rate on the cell growth): 38.5% | inhibition at 250 µg/mL ([4]; SMMC-7721, 250 μg/ml, read-out: Inhibition rate on the cell growth): 62.3% | inhibition at 500 µg/mL ([4]; SMMC-7721, 500 μg/ml, read-out: Inhibition rate on the cell growth): 80% | inhibition at 1000 µg/mL ([4]; SMMC-7721, 1000 μg/ml, read-out: Inhibition rate on the cell growth): 98.8% | IC50 [4]: 150 µg/mL
